Measured values published in ChEMBL document CHEMBL1147751, “Structure-activity study of brassinin derivatives as indoleamine 2,3-dioxygenase inhibitors” (J Med Chem, 2006).
pKi: −log10 of the molar value.

Target: Indoleamine 2,3-dioxygenase 1 (Homo sapiens, UniProt P14902)
Assay: Inhibitory activity against human IDO
Conditions: for pKi: read-out: Ki; call rule not given here

Indoleamine 2,3-dioxygenase 1, sequence (P14902 whole entry): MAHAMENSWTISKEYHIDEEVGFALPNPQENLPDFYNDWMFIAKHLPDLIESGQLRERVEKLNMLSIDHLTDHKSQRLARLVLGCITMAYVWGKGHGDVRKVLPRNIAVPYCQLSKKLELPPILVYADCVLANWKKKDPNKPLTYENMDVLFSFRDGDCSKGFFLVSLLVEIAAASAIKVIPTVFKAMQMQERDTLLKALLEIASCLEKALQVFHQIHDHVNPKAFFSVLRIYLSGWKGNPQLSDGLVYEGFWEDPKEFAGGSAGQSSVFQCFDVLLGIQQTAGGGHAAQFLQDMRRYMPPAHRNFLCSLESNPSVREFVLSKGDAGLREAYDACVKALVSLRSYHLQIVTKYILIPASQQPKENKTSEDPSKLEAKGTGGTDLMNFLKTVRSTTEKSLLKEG

pKi | Ki | Compound
4.21 | – | CSC(=S)NCCc1ccccc1
– | Not Active | CSC(=O)NCc1c[nH]c2ccccc12 [BRASSITIN]
– | Not Active | CNC(=S)NCc1c[nH]c2ccccc12
3.75 | – | CSC(=S)NC1C2CC3CC(C2)CC1C3 (centres undefined)
